Data reported in patent publication EP0394553A2, “Use of fluorine containing pyridone carboxylic acid derivatives for preparing a medicament for the treatment of HIV infections” (DAIICHI PHARMACEUTICAL CO., LTD., priority 1989, dated 1990).

Test system: HIV (LAV 1)
Assay: microbe, parasite or virus in culture
Method in brief: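 CEM cells were infected with HIV LAV 1 at MOI 0.05 and cultured with test substance at 10, 5, 2.5 or 1 mcg/ml, with medium exchanged periodically up to 30 days. Viable cell count and percentage were measured by trypan blue, and antigen-positive cells by immunofluorescence with anti-HIV antiserum, at 4–30 days. Values are means of two wells.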

[1] = 1 mcg/ml, 4-day addition, after 4 days
[2] = 1 mcg/ml, 4-day addition, after 7 days
[3] = 1 mcg/ml, 4-day addition, after 10 days
[4] = 1 mcg/ml, 4-day addition, after 30 days
[5] = 1 mcg/ml, continuous addition, after 4 days
[6] = 1 mcg/ml, continuous addition, after 7 days
[7] = 1 mcg/ml, continuous addition, after 10 days
[8] = 1 mcg/ml, continuous addition, after 30 days
[9] = 2.5 mcg/ml, 4-day addition, after 4 days
[10] = 2.5 mcg/ml, 4-day addition, after 7 days
[11] = 2.5 mcg/ml, 4-day addition, after 10 days
[12] = 2.5 mcg/ml, 4-day addition, after 20 days
[13] = 2.5 mcg/ml, 4-day addition, after 30 days
[14] = 2.5 mcg/ml, continuous addition, after 4 days
[15] = 2.5 mcg/ml, continuous addition, after 7 days
[16] = 2.5 mcg/ml, continuous addition, after 10 days
[17] = 2.5 mcg/ml, continuous addition, after 20 days
[18] = 2.5 mcg/ml, continuous addition, after 30 days
[19] = 5 mcg/ml, 4-day addition, after 4 days
[20] = 5 mcg/ml, 4-day addition, after 7 days
[21] = 5 mcg/ml, 4-day addition, after 10 days
[22] = 5 mcg/ml, 4-day addition, after 20 days
[23] = 5 mcg/ml, 4-day addition, after 30 days
[24] = 5 mcg/ml, continuous addition, after 4 days
[25] = 5 mcg/ml, continuous addition, after 7 days
[26] = 5 mcg/ml, continuous addition, after 10 days
[27] = 5 mcg/ml, continuous addition, after 20 days
[28] = 5 mcg/ml, continuous addition, after 30 days

`C[C@H]1COc2c(N3CCN(C)CC3)c(F)cc3c(=O)c(C(=O)O)cn1c23` [DR-3355, (-)-(S)-9-fluoro-2,3-dihydro-3-methyl-10-(4-methyl-1-piperazinyl)-7-oxo-7H-pyrido[1,2,3-de][1,4]benzoxazine-6-carboxylic acid hemihydrate] was tested, and the Viable cell count [1] was 220 × 10⁴ cells/ml, the “Viral antigen-positive cell percentage” value [1] was 91% and the Viable cell count [2] was 71 × 10⁴ cells/ml. For the same compound, the “Viral antigen-positive cell percentage” value [2] was 61%, the Viable cell count [3] was 54 × 10⁴ cells/ml and the “Viral antigen-positive cell percentage” value [3] was 56%. For the same compound, the Viable cell count (1 mcg/ml, 4-day addition, after 20 days) was 3 × 10⁴ cells/ml, the Viable cell count [4] was 68 × 10⁴ cells/ml and the “Viral antigen-positive cell percentage” value [4] was 16%. For the same compound, the Viable cell count [5] was 190 × 10⁴ cells/ml, the “Viral antigen-positive cell percentage” value [5] was 88% and the Viable cell count [6] was 65 × 10⁴ cells/ml. For the same compound, the “Viral antigen-positive cell percentage” value [6] was 52%, the Viable cell count [7] was 110 × 10⁴ cells/ml and the “Viral antigen-positive cell percentage” value [7] was 43%. The Viable cell count (1 mcg/ml, continuous addition, after 20 days) was 11 × 10⁴ cells/ml, the Viable cell count [8] was 360 × 10⁴ cells/ml and the “Viral antigen-positive cell percentage” value [8] was 15%. The Viable cell count [9] was 190 × 10⁴ cells/ml, the “Viral antigen-positive cell percentage” value [9] was 88% and the Viable cell count [10] was 76 × 10⁴ cells/ml. For the same compound, the “Viral antigen-positive cell percentage” value [10] was 53%, the Viable cell count [11] was 280 × 10⁴ cells/ml and the “Viral antigen-positive cell percentage” value [11] was 44%. The Viable cell count [12] was 230 × 10⁴ cells/ml, the “Viral antigen-positive cell percentage” value [12] was 30% and the Viable cell count [13] was 130 × 10⁴ cells/ml. For the same compound, the “Viral antigen-positive cell percentage” value [13] was 10%, the Viable cell count [14] was 210 × 10⁴ cells/ml and the “Viral antigen-positive cell percentage” value [14] was 87%. The Viable cell count [15] was 53 × 10⁴ cells/ml, the “Viral antigen-positive cell percentage” value [15] was 51% and the Viable cell count [16] was 290 × 10⁴ cells/ml. For the same compound, the “Viral antigen-positive cell percentage” value [16] was 25%, the Viable cell count [17] was 390 × 10⁴ cells/ml and the “Viral antigen-positive cell percentage” value [17] was 35%. The Viable cell count [18] was 270 × 10⁴ cells/ml, the “Viral antigen-positive cell percentage” value [18] was 11% and the Viable cell count [19] was 190 × 10⁴ cells/ml. For the same compound, the “Viral antigen-positive cell percentage” value [19] was 90%, the Viable cell count [20] was 78 × 10⁴ cells/ml and the “Viral antigen-positive cell percentage” value [20] was 59%. The Viable cell count [21] was 320 × 10⁴ cells/ml, the “Viral antigen-positive cell percentage” value [21] was 33% and the Viable cell count [22] was 190 × 10⁴ cells/ml. The “Viral antigen-positive cell percentage” value [22] was 36%, the Viable cell count [23] was 360 × 10⁴ cells/ml and the “Viral antigen-positive cell percentage” value [23] was 2%. For the same compound, the Viable cell count [24] was 160 × 10⁴ cells/ml, the “Viral antigen-positive cell percentage” value [24] was 87% and the Viable cell count [25] was 51 × 10⁴ cells/ml. The “Viral antigen-positive cell percentage” value [25] was 53%, the Viable cell count [26] was 260 × 10⁴ cells/ml and the “Viral antigen-positive cell percentage” value [26] was 37%. For the same compound, the Viable cell count [27] was 320 × 10⁴ cells/ml, the “Viral antigen-positive cell percentage” value [27] was 29% and the Viable cell count [28] was 210 × 10⁴ cells/ml. The “Viral antigen-positive cell percentage” value [28] was 4% and the Viable cell count (10 mcg/ml, 4-day addition, after 4 days) was 170 × 10⁴ cells/ml.
